The source of these data is US20200368190A1, “METHODS OF TREATMENT” (Arena Pharmaceuticals, Inc., priority 2017, published 2020).

Data set [1] is described as follows: Clinical Trial 2: randomized, double-blind, placebo-controlled study in individuals with severe Raynaud's. Format: in vivo. The following applies: titration scheme. The procedure: A randomized, double-blind, placebo-controlled study is conducted in individuals with severe Raynaud's. Individuals are administered Compound 1 using a titration scheme. Compound 1 is determined to be efficacious for the treatment and/or prevention of Raynaud's.

Data set [2] is described as follows: Clinical Trial 1: 22-week randomized, double-blind, placebo-controlled study with dose titration. Format: in vivo. The procedure:
A 22-week randomized, double-blind, placebo-controlled study with a dose titration period of up to 9 weeks was conducted. Sixty-one individuals were randomized 2:1 Compound 1 to placebo. Right Heart Catheterization (RHC) measurements were obtained prior to study Day 1 of the dose titration period and at Week 22. The following values were obtained and recorded: pulmonary artery pressure (PAP) (systolic, diastolic, and mean), heart rate (HR), right atrial pressure (RAP), pulmonary capillary wedge pressure (PCWP) right ventricular pressure (RVP) and cardiac output (CO), pulmonary vascular resistance (PVR), arterial and mixed venous oxygen saturation […] (if applicable). Systemic vascular resistance (SVR) was estimated from blood pressure measurements.
Primary efficacy endpoints for the study were: a) change from baseline in PVR after 22 weeks of treatment, and b) change from baseline in 6 MWD after 22 weeks of treatment. Compound 1 was administered as a capsule in 0.01, 0.02, 0.03, 0.04, and 0.10 mg dose strengths. The starting dose of Compound 1 was 0.01 mg twice daily. The dose of Compound 1 was titrated according to individual tolerability. If the initial dose was tolerated (0.01 mg twice daily), then the dose was increased once a week in the following fashion: 0.02 mg twice daily, 0.03 mg twice daily, 0.04 mg twice daily, 0.06 mg twice daily, 0.08 mg, 0.1 mg twice daily, 0.2 mg twice daily and 0.3 mg twice daily. The dose was optionally escalated to a possible maximum total daily dose of 0.6 mg (0.3 mg twice daily), pending tolerability.

For data set [3] the following is noted: intravenous, over 9 weeks, cited from earlier work.
For data set [4] the following is noted: oral, titrated to the highest tolerated dose; individuals with systemic sclerosis; cited from earlier work.
The conditions of data set [5]: intravenous; cited from earlier work.
Setting [6] is: after 22 weeks of treatment, capsule, titrated from 0.01 mg twice daily up to 0.3 mg twice daily.

In the case of `O=C(O)COC[C@H]1CC[C@H](COC(=O)N(c2ccccc2)c2ccc(Cl)cc2)CC1` [Compound 1, 2-(((1r,4r)-4-(((4-chlorophenyl)(phenyl)carbamoyloxy)methyl)cyclohexyl)methoxy)acetic acid], the “efficacy for the treatment and/or prevention of Raynaud's” value in data set [1] is reported as “efficacious”. In addition, the “adverse events observed in the study” value in data set [2] (22-week study, titrated up to 0.6 mg total daily dose) was “consistent with other prostacyclin treatments for the management of PAH”. Besides, in data set [2] (setting [6]), the “6-minute walk distance (6MWD)” value was “numerical improvement” and the “change from baseline in pulmonary vascular resistance (PVR) compared to placebo (primary endpoint)” value is given as “statistically significant change from baseline”.
Consider `CC#CCC(C)[C@H](O)/C=C/[C@@H]1[C@H]2C/C(=C/CCCC(=O)O)C[C@H]2C[C@H]1O` (stereo partly drawn) [iloprost], for which, in data set [3] (vs. 19.7% comparator), the improve severity score is listed as 34.8%. The “reduce weekly Raynaud phenomenon attacks” value in data set [3] (vs. 22.2% comparator) is 39.1%.
For the molecule `CC(C)N(CCCCOCC(=O)NS(C)(=O)=O)c1cnc(-c2ccccc2)c(-c2ccccc2)n1` [selexipag], the “primary efficacy endpoint: reduction in the number of Raynaud's phenomenon attacks per week versus placebo” value in data set [4] is “did not meet the primary efficacy endpoint”.
In the case of `CCCCC[C@H](O)/C=C/[C@@H]1[C@H]2C/C(=C/CCCC(=O)O)O[C@H]2C[C@H]1O` [epoprostenol], in data set [5], the “frequency and duration of Raynaud phenomenon attacks” value is “reduced frequency and duration”; the “loss in clinical response, time after the last infusion” value is 8-10 weeks.
